Values quoted from earlier work as cited in patent US20230165856A1, “DAPAGLIFLOZIN AND AMBRISENTAN FOR THE PREVENTION AND TREATMENT OF COVID-19” (AstraZeneca AB, priority 2020, published 2023).
Read-outs that look alike come from different tables or passages of the source.

Experiments:
[1] = HF patients with and without type 2 diabetes mellitus
[2] = human, in vivo
[3] = experimental pig model of acute lung injury
[4] = molecular target: T1, endothelin A (ETA) receptor (Homo sapiens, UniProt P25101)
T1 sequence (P25101 21-427): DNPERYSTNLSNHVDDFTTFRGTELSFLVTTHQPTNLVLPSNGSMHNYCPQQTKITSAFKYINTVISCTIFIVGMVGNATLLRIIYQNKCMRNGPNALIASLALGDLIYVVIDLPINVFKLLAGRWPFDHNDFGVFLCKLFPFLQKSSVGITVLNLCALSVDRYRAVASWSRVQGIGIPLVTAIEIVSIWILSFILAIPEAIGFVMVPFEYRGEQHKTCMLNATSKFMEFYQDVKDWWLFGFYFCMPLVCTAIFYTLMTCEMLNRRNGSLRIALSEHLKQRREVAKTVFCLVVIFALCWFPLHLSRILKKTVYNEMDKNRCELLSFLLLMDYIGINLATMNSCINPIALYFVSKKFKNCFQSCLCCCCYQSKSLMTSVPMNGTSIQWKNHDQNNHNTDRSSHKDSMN

[5] = endotoxaemic sheep

CCOc1ccc(Cc2cc([C@@H]3O[C@H](CO)[C@@H](O)[C@H](O)[C@H]3O)ccc2Cl)cc1 [dapagliflozin]
cardiovascular (CV) death [1]: reduced | risk for hospitalization for heart failure (HF) [1]: reduce the risk

COc1ccccc1Oc1c(NS(=O)(=O)c2ccc(C(C)(C)C)cc2)nc(-c2ncccn2)nc1OCCO [Bosentan]
RVSP [2]: rapid and sustained improvement | oxygenation [2]: gradual improvement

COc1cc(OC)nc(O[C@H](C(=O)O)C(OC)(c2ccccc2)c2ccccc2)n1 [LU-135252]
oxygenation [3]: improved oxygenation

COC(c1ccccc1)(c1ccccc1)[C@H](Oc1nc(C)cc(C)n1)C(=O)O [Ambrisentan, (2S)-2-[(4,6-dimethylpyrimidin-2-yl)oxy]-3-methoxy-3,3-diphenylpropanoic acid]
selectivity for the ETA versus the ETB receptor [4]: approximately 4000 fold | selectivity for the ET-A receptor compared to bosentan ([4]; compared to bosentan): greater selectivity

COc1ccccc1Oc1c(NS(=O)(=O)c2ccc(C(C)C)cn2)nc(-c2ccnc(-c3nnn[nH]3)c2)nc1OCCO [Tezosentan]
lung injury [5]: attenuated lung injury
